This assay has as its system ZIKV replicon. As to the kind of experiment: ZIKV replication inhibition assay (NanoLuc replicon in Vero cells). Particulars: Zika virus, Vero, 72 h.
[1] abbreviates: read-out: ZIKA Cell_Nanoluc, Vero cells with stable ZIKV replicon, 72 h, Nano-Glo readout.

Where two headings read alike, the source gives them in different places.

As for `Cc1nc(N)ncc1-c1ccc(C[n+]2cc([N-]C(=O)Nc3cc(NC(=O)Cc4ccccc4)cc(C(F)(F)F)c3)on2)nc1` [Example 25, (3-((5-(2-Amino-4-methylpyrimidin-5-yl)pyridin-2-yl)methyl)-1,2,3-oxadiazol-3-ium-5-yl)((3-(2-phenylacetamido)-5-(trifluoromethyl)phenyl)carbamoyl)amide], the EC50 under setting [1] fell in the range of 1000 to 20000 nM.
For `COC(=O)Cc1ccc(C[n+]2cc([N-]C(=O)Nc3cc(NC(=O)Cc4ccccc4)cc(C(F)(F)F)c3)on2)cc1` [Example 109, (3-(4-(2-Methoxy-2-oxoethyl)benzyl)-1,2,3-oxadiazol-3-ium-5-yl)((3-(2-phenylacetamido)-5-(trifluoromethyl)phenyl)carbamoyl)amide], the EC50 under setting [1] is 100 to 1000 nM.
In the case of `O=C([N-]c1c[n+](Cc2ccccn2)no1)Nc1cc(NC(=O)c2ccc(CN3CCOCC3)o2)cc(C(F)(F)F)c1` [Example 30], the EC50 (read-out: ZIKA Cell_Nanoluc) lay in the range of 1000 to 20000 nM.
With `Nc1ccc(CC(=O)Nc2cc(NC(=O)[N-]c3c[n+](Cc4ccccn4)no3)cc(C(F)(F)F)c2)cn1` [Example 42], the EC50 (read-out: ZIKA Cell_Nanoluc) lay within 1000 to 20000 nM.
On to `O=C(Cc1ccccc1)Nc1cc(NC(=O)[N-]c2c[n+](Cc3ccc(Br)cn3)no2)cc(C(F)(F)F)c1` [Example 12, (3-((5-Bromopyridin-2-yl)methyl)-1,2,3-oxadiazol-3-ium-5-yl)((3-(2-phenylacetamido)-5-(trifluoromethyl)phenyl)carbamoyl)amide], for which the EC50 under setting [1] lay in the range of 100 to 1000 nM.
The same measure, in the same setting: in the case of `O=C(Cc1ccccc1)Nc1cc(NC(=O)[N-]c2c[n+](Cc3cccc(CN4C(=O)c5ccccc5C4=O)c3)no2)cc(C(F)(F)F)c1` [Example 107, (3-(3-((1,3-Dioxoisoindolin-2-yl)methyl)benzyl)-1,2,3-oxadiazol-3-ium-5-yl)((3-(2-phenylacetamido)-5-(trifluoromethyl)phenyl)carbamoyl)amide] it was 1000 to 20000 nM; in that of `CCOC(=O)CN1CCC(C[n+]2cc([N-]C(=O)Nc3cc(NC(=O)Cc4ccccc4)cc(C(F)(F)F)c3)on2)CC1` [Example 140, (3-((1-(2-Ethoxy-2-oxoethyl)piperidin-4-yl)methyl)-1,2,3-oxadiazol-3-ium-5-yl)((3-(2-phenylacetamido)-5-(trifluoromethyl)phenyl)-carbamoyl)amide], 100 to 1000 nM.
As for `O=C(CCCCS(=O)(=O)N1CCCCC1)Nc1cc(NC(=O)[N-]c2c[n+](Cc3ccccn3)no2)cc(C(F)(F)F)c1` [Example 82], the EC50 (read-out: ZIKA Cell_Nanoluc) is more than 20000 nM.
In the case of `NCc1ccccc1-c1ccc(C[n+]2cc([N-]C(=O)Nc3cc(NC(=O)Cc4ccccc4)cc(C(F)(F)F)c3)on2)nc1` [Example 5, (3-((5-(2-(Aminomethyl)phenyl)pyridin-2-yl)methyl)-1,2,3-oxadiazol-3-ium-5-yl)((3-(2-phenylacetamido)-5-(trifluoromethyl)phenyl)carbamoyl)amide], under setting [1], the EC50 lay within 1000 to 20000 nM.
For `Cc1noc(C)c1-c1ccc([C@@H](CN)[n+]2cc([N-]C(=O)Nc3cc(NC(=O)Cc4ccccc4)cc(C(F)(F)F)c3)on2)cc1` [Example 24, (S)-(3-(2-Amino-1-(4-(3,5-dimethylisoxazol-4-yl)phenyl)ethyl)-1,2,3-oxadiazol-3-ium-5-yl)((3-(2-phenylacetamido)-5-(trifluoromethyl)phenyl)carbamoyl)amide], the EC50 under setting [1] lay in the range of 1000 to 20000 nM.
Regarding `O=C([N-]c1c[n+](Cc2ccccn2)no1)Nc1cc(NC(=O)c2ccnn2-c2ccccc2)cc(C(F)(F)F)c1` [Example 34], the EC50 (read-out: ZIKA Cell_Nanoluc) is 1000 to 20000 nM.
For `O=C(Cc1ccccc1)Nc1cc(NC(=O)[N-]c2c[n+](Cc3ccc(CCO)cc3)no2)cc(C(F)(F)F)c1` [Example 111, (3-(4-(2-Hydroxyethyl)benzyl)-1,2,3-oxadiazol-3-ium-5-yl)((3-(2-phenylacetamido)-5-(trifluoromethyl)phenyl)carbamoyl)amide], the EC50 under setting [1] was in the range of 100 to 1000 nM.
For the molecule `O=C(CC1(N2CCCC2)COC1)Nc1cc(NC(=O)[N-]c2c[n+](Cc3ccccn3)no2)cc(C(F)(F)F)c1` [Example 86, (3-(Pyridin-2-ylmethyl)-1,2,3-oxadiazol-3-ium-5-yl)((3-(2-(3-(pyrrolidin-1-yl)oxetan-3-yl)acetamido)-5-(trifluoromethyl)phenyl)carbamoyl)amide], under setting [1], the EC50 fell in the range of 1000 to 20000 nM.
`N[C@H]1CC[C@@H](C[n+]2cc([N-]C(=O)Nc3cc(N4CCC(c5ccccc5)C4=O)cc(C(F)(F)F)c3)on2)CC1` (stereo partly drawn) [Example 131, (3-(((1S,4S)-4-Aminocyclohexyl)methyl)-1,2,3-oxadiazol-3-ium-5-yl)((3-(2-oxo-3-phenylpyrrolidin-1-yl)-5-(trifluoromethyl)-phenyl)carbamoyl)amide]: where the note is “read-out: ZIKA Cell_Nanoluc”, the EC50 fell in the range of 1000 to 20000 nM.
As to `N#Cc1ccc2nc(C(=O)Nc3cc(NC(=O)[N-]c4c[n+](Cc5ccccn5)no4)cc(C(F)(F)F)c3)cn2c1` [Example 37], the EC50 (read-out: ZIKA Cell_Nanoluc) lay within 1000 to 20000 nM.
As to `C[C@@H]1C[C@H]1c1cc(NC(=O)Cc2ccccc2)cc(NC(=O)[N-]c2c[n+](Cc3ccccn3)no2)c1` [Example 130, ((3-((1R,2R)-2-Methylcyclopropyl)-5-(2-phenylacetamido)phenyl)-carbamoyl)(3-(pyridin-2-ylmethyl)-1,2,3-oxadiazol-3-ium-5-yl)amide], the EC50 under setting [1] is 1000 to 20000 nM.
In the case of `O=C(CS(=O)(=O)c1ccccc1)Nc1cc(NC(=O)[N-]c2c[n+](Cc3ccccn3)no2)cc(C(F)(F)F)c1` [Example 43], the EC50 (read-out: ZIKA Cell_Nanoluc) was 1000 to 20000 nM.
On the same count and under the same terms, in the case of `COc1ncc(-c2ccc(C[n+]3cc([N-]C(=O)Nc4cc(NC(=O)C5CCCC5)cc(C(F)(F)F)c4)on3)cc2)c(C)n1` [Example 18] it was 100 to 1000 nM.
For the molecule `Cc1noc(C)c1-c1ccc([C@H](CN)[n+]2cc([N-]C(=O)Nc3cc(NC(=O)Cc4ccccc4)cc(C(F)(F)F)c3)on2)cc1` [Example 23, (R)-(3-(2-Amino-1-(4-(3,5-dimethylisoxazol-4-yl)phenyl)ethyl)-1,2,3-oxadiazol-3-ium-5-yl)((3-(2-phenylacetamido)-5-(trifluoromethyl)phenyl)-carbamoyl)amide], under setting [1], the EC50 is 1000 to 20000 nM.
As to `COc1ncc(-c2ccc(C[n+]3cc([N-]C(=O)Nc4cc(NS(=O)(=O)CC5CCCCC5)cc(C(F)(F)F)c4)on3)cc2)c(C)n1` [Example 2, ((3-((Cyclohexylmethyl)sulfonamido)-5-(trifluoromethyl)phenyl)carbamoyl)(3-(4-(2-methoxy-4-methylpyrimidin-5-yl)benzyl)-1,2,3-oxadiazol-3-ium-5-yl)amide], under setting [1], the EC50 is more than 20000 nM.
For the molecule `O=C(Cc1ccccc1)Nc1cc(NC(=O)[N-]c2c[n+](CC3CCN(CCO)CC3)no2)cc(C(F)(F)F)c1` [Example 141, (3-((1-(2-Hydroxyethyl)piperidin-4-yl)methyl)-1,2,3-oxadiazol-3-ium-5-yl)((3-(2-phenylacetamido)-5-(trifluoromethyl)phenyl)-carbamoyl)amide], the EC50 under setting [1] lay within 1000 to 20000 nM.
As to `CN1CCC([n+]2cc([N-]C(=O)Nc3cc(NC(=O)Cc4ccccc4)cc(C(F)(F)F)c3)on2)CC1` [Example 100, (3-(1-Methylpiperidin-4-yl)-1,2,3-oxadiazol-3-ium-5-yl)((3-(2-phenylacetamido)-5-(trifluoromethyl)phenyl)carbamoyl)amide], the EC50 under setting [1] lay in the range of 1000 to 20000 nM.
As for `Cn1cnnc1COCC(=O)Nc1cc(NC(=O)[N-]c2c[n+](Cc3ccccn3)no2)cc(C(F)(F)F)c1` [Example 72], the EC50 (read-out: ZIKA Cell_Nanoluc) was more than 20000 nM.
For the molecule `NCc1ccccc1C[n+]1cc([N-]C(=O)Nc2cc(NC(=O)Cc3ccccc3)cc(C(F)(F)F)c2)on1` [Example 114, (3-(2-(Aminomethyl)benzyl)-1,2,3-oxadiazol-3-ium-5-yl)((3-(2-phenylacetamido)-5-(trifluoromethyl)phenyl)carbamoyl)amide], under setting [1], the EC50 fell in the range of 1000 to 20000 nM.
In the case of `O=C([N-]c1c[n+](Cc2ccccn2)no1)Nc1cc(NC(=O)C2CS(=O)(=O)CCO2)cc(C(F)(F)F)c1` (stereo not drawn) [Example 88], under “read-out: ZIKA Cell_Nanoluc”, the EC50 is more than 20000 nM.
Consider `O=C([N-]c1c[n+](Cc2ccccn2)no1)Nc1cc(NC(=O)c2cncn2C2CC2)cc(C(F)(F)F)c1` [Example 75], for which the EC50 (read-out: ZIKA Cell_Nanoluc) was more than 20000 nM.
In the case of `O=C(Cc1ccccc1)Nc1cc(Cl)cc(NC(=O)[N-]c2c[n+](Cc3ccccn3)no2)c1` [Example 58, ((3-Chloro-5-(2-phenylacetamido)phenyl)carbamoyl)(3-(pyridin-2-ylmethyl)-1,2,3-oxadiazol-3-ium-5-yl)amide], the EC50 under setting [1] was 1000 to 20000 nM.
As for `COc1ncc(-c2ccc(C[n+]3cc([N-]C(=O)Nc4cc(N)cc(C(F)(F)F)c4)on3)cc2)c(C)n1` [Example 3, ((3-Amino-5-(trifluoromethyl)phenyl)carbamoyl)(3-(4-(2-methoxy-4-methylpyrimidin-5-yl)benzyl)-1,2,3-oxadiazol-3-ium-5-yl)amide], under setting [1], the EC50 lay within 100 to 1000 nM.
As to `O=C([N-]c1c[n+](Cc2ccccn2)no1)Nc1cc(NC(=O)C2Cc3ccccc32)cc(C(F)(F)F)c1` (stereo not drawn) [Example 47], the EC50 (read-out: ZIKA Cell_Nanoluc) fell in the range of 1000 to 20000 nM.
With `O=C(Cc1ccccc1)Nc1cc(NC(=O)[N-]c2c[n+](Cc3ccccn3)no2)cc(C2CC2)c1` [Example 89, ((3-Cyclopropyl-5-(2-phenylacetamido)phenyl)carbamoyl)(3-(pyridin-2-ylmethyl)-1,2,3-oxadiazol-3-ium-5-yl)amide], the EC50 under setting [1] was in the range of 1000 to 20000 nM.
As to `NCc1ccc(CC(=O)Nc2cc(NC(=O)[N-]c3c[n+](Cc4ccccn4)no3)cc(C(F)(F)F)c2)cc1` [Example 27, ((3-(2-(4-(Aminomethyl)phenyl)acetamido)-5-(trifluoromethyl)phenyl)carbamoyl)(3-(pyridin-2-ylmethyl)-1,2,3-oxadiazol-3-ium-5-yl)amide], under setting [1], the EC50 lay within 1000 to 20000 nM.
With `COc1ncc(-c2ccc(C[n+]3cc([N-]C(=O)Nc4cc(NC(=O)Cc5cccnc5)cc(C(F)(F)F)c4)on3)cc2)c(C)n1` [Example 19, (3-(4-(2-Methoxy-4-methylpyrimidin-5-yl)benzyl)-1,2,3-oxadiazol-3-ium-5-yl)((3-(2-(pyridin-3-yl)acetamido)-5-(trifluoromethyl)phenyl)carbamoyl)amide], the EC50 under setting [1] fell in the range of 1000 to 20000 nM.
For the molecule `O=C([N-]c1c[n+](Cc2ccccn2)no1)Nc1cc(NC(=O)c2cnn(Cc3ccccc3)c2)cc(C(F)(F)F)c1` [Example 35], the EC50 (read-out: ZIKA Cell_Nanoluc) lay in the range of 1000 to 20000 nM.

(Values after patent EP4563146A1 (IRBM S.P.A., priority 2023, dated 2025).)
